# Results as given in the Kinase Knowledgebase extract (Sharma et al. 2016).
# pIC50: −log10 of the molar value.
# Molecular target: PIK3CG (human) (UniProt P48736)
# Experiment: Assessment of PIK3CG Kinase Activity
# PIK3CG (human), sequence (P48736 whole entry, looked up): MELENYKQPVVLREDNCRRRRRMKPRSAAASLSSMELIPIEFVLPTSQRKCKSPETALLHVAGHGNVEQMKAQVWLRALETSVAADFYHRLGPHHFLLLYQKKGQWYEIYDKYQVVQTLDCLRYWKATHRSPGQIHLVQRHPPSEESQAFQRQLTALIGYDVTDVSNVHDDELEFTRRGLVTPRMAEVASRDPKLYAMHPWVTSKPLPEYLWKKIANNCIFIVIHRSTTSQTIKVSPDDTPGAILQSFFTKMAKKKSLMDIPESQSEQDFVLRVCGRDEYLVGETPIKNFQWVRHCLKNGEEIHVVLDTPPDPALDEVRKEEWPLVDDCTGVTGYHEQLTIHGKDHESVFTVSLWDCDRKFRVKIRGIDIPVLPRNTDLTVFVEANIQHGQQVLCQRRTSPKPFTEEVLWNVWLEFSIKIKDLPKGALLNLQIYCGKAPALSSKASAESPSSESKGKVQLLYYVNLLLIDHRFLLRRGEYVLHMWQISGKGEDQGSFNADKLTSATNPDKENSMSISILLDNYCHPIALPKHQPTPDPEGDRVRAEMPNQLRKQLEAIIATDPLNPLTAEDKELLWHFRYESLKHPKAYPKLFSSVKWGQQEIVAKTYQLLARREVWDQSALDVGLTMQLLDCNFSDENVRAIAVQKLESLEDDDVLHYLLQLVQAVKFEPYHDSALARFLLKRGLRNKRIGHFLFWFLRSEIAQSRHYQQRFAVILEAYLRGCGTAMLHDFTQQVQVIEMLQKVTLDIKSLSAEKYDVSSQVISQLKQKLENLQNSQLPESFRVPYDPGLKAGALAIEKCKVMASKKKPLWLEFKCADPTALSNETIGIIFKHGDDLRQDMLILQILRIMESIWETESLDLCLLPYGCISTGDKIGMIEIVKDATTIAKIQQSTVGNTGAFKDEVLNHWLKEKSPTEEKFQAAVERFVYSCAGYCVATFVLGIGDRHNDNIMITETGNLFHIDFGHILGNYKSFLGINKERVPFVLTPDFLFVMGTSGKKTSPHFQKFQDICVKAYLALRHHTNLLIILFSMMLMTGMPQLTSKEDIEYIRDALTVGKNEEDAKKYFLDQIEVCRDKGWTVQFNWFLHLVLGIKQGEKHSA
row,SMILES,pIC50
1,CC(=O)Nc1nc2c(s1)-c1c(cnn1-c1ccc(C(=O)NCc3ccc(C(N)=O)cc3)cc1)CC2,> 6.10
2,CCCC(=O)n1cc2c(n1)-c1sc(NC(C)=O)nc1CC2,> 6.10
3,CC(=O)Nc1nc2c(s1)-c1c(cnn1-c1ccc(C(=O)N[C@H]3CC[C@H](N4C[C@@H](C)O[C@@H](C)C4)CC3)cc1)CC2,> 6.10
4,CC(=O)Nc1nc2c(s1)-c1c(cnn1-c1ccc(C(=O)N[C@H]3CC[C@H](NC(=O)Cc4ccccc4)CC3)cc1)CC2,> 6.10
5,CC(=O)Nc1nc2c(s1)-c1c(cnn1-c1ccc(C(=O)N3CCOCC3)cc1Cl)CC2,> 6.10
6,COCc1nn(-c2ccc(C(=O)NC3CCN(C)CC3)cc2Cl)c2c1CCc1nc(NC(C)=O)sc1-2,> 6.10
7,COc1cc(OC)cc(-c2ncc3c(n2)-c2sc(NC(C)=O)nc2CC3)c1,> 6.10
8,CC(=O)Nc1nc2c(s1)-c1nn(C(=O)C(C)C)cc1CC2,> 6.10
9,CC(=O)Nc1nc2c(s1)-c1c(cnn1-c1ccc(C)cc1)C2,> 6.10
10,CC(=O)Nc1nc2c(s1)-c1c(c(C(=O)N3CCOCC3)nn1-c1ccccc1Cl)CC2,> 6.10
11,CCS(=O)(=O)c1ncc2c(n1)-c1sc(NC(C)=O)nc1CC2,> 6.10
12,CC(=O)Nc1nc2c(s1)-c1c(cnn1-c1ccc(S(N)(=O)=O)cc1)CC2,> 6.10
13,CC(=O)Nc1nc2c(s1)-c1nn(-c3ccc(C(=O)N[C@H]4CC[C@H](N5CCCC5)CC4)cc3)c(-c3ccco3)c1CC2,> 6.10
14,CC(=O)Nc1nc2c(s1)-c1c(cnn1-c1ccc(CC(=O)NCCN3CCCC3=O)cc1)CC2,> 6.10
15,Nc1nc2c(s1)-c1c(cnn1-c1ccccc1)C2,> 6.10
16,CC(=O)Nc1nc2c(s1)-c1c(cnn1-c1ccc(C(=O)NC3CCC4(CC3)OCCO4)cc1)CC2,> 6.10
17,CC(=O)Nc1nc2c(s1)-c1c(c([C@H]3CCCO3)nn1-c1ccccc1C(F)(F)F)CC2,> 6.10
18,CCN(CCO)C(=O)c1nn(-c2ccccc2)c2c1CCc1nc(NC(C)=O)sc1-2,> 6.10
19,CC(=O)Nc1nc2c(s1)-c1c(cnn1-c1ccc(C(=O)N(C)CCO)cc1)CC2,> 6.10
20,CC(=O)Nc1nc2c(s1)-c1c(cnn1-c1ccc(C(=O)N3CCC4(CCN(C)C4)C3)cc1)CC2 (stereo not drawn),> 6.10
21,CC(=O)Nc1nc2c(s1)-c1c(c(-c3ccccc3)nn1-c1ccccc1C)CC2,> 6.10
22,COCc1nn(-c2ccc(C(=O)NCc3ccncc3)cc2Cl)c2c1CCc1nc(NC(C)=O)sc1-2,> 6.10
23,CC(=O)Nc1nc2c(s1)-c1c(cnn1CCc1ccccc1)CC2,> 6.10
24,CC(=O)Nc1nc2c(s1)-c1c(c(NC(=O)Oc3ccccc3)nn1-c1ccccc1Cl)CC2,> 6.10
25,CC(=O)Nc1nc2c(s1)-c1c(cnn1-c1ccc(C(=O)N3CCC[C@@H]3C(N)=O)cc1)CC2,> 6.10

row,SMILES,pIC50
1,CC(=O)Nc1nc2c(s1)-c1c(c(-c3ccoc3)nn1-c1ccccc1C)CC2,> 6.10
2,CN1CCN(C(=O)Nc2nc3c(s2)-c2nc(-c4ccccc4)ncc2CC3)CC1,> 6.10
3,CN(C)C(=O)Nc1nc2c(s1)-c1c(cnn1-c1ccccc1)CC2,> 6.10
4,CN(C)CCCC(=O)Nc1nc2c(s1)-c1c(cnn1-c1ccccc1)C2,> 6.10
5,CC(=O)Nc1nc2c(s1)-c1c(cnn1-c1ccc(C(=O)NCc3cccc(N4CCNC4=O)c3)cc1)CC2,> 6.10
6,CC(=O)Nc1nc2c(s1)-c1nc(-c3ccccc3Cl)ncc1CC2,> 6.10
7,COC(=O)c1nn(-c2ccc(C)cc2)c2c1CCc1nc(NC(C)=O)sc1-2,> 6.10
8,COC(=O)Nc1nc2c(s1)-c1c(cnn1-c1ccccc1)CC2,> 6.10
9,C#CCN(C(=O)OC(C)(C)C)c1ncc2c(n1)-c1sc(NC(C)=O)nc1CC2,> 6.10
10,CC(=O)Nc1nc2c(s1)-c1c(cnn1-c1ccc(C(=O)N3CCC[C@H]3C(N)=O)cc1)CC2,> 6.10
11,CC(=O)Nc1nc2c(s1)-c1nc(-c3cccc(Cl)c3)ncc1CC2,> 6.10
12,CN1CCN(C(=O)Nc2nc3c(s2)-c2c(cnn2-c2ccccc2)C3)CC1,> 6.10
13,CC(=O)Nc1nc2c(s1)-c1c(cnn1-c1ccc(C(=O)N[C@H](CC(C)C)C(N)=O)cc1Cl)CC2,> 6.10
14,CC(=O)Nc1nc2c(s1)-c1c(cnn1-c1ccc(C(=O)N[C@@H](COCc3ccccc3)C(N)=O)cc1Cl)CC2,> 6.10
15,CC(=O)Nc1nc2c(s1)-c1nc(N3CCCC(CN)C3)ncc1CC2 (stereo not drawn),> 6.10
16,CC(=O)Nc1nc2c(s1)-c1c(cnn1-c1ccccc1F)C2,> 6.10
17,O=C(Nc1nc2c(s1)-c1c(cnn1-c1ccccc1)C2)N1CCCCC1,> 6.10
18,COCc1nn(-c2ccc(C(=O)N(C)Cc3ccncc3)cc2Cl)c2c1CCc1nc(NC(C)=O)sc1-2,> 6.10
19,CC(=O)Nc1nc2c(s1)-c1c(c(C(=O)NCCO)nn1-c1ccccc1Cl)CC2,> 6.10
20,C#CCNc1ncc2c(n1)-c1sc(NC(C)=O)nc1CC2,> 6.10
21,CC(=O)Nc1nc2c(s1)-c1c(cnn1-c1ccc(Cl)cc1)C2,> 6.10
22,CCOC(=O)c1n[nH]c2c1CCc1nc(NC(C)=O)sc1-2,> 6.10
23,CC(=O)Nc1nc2c(s1)-c1c(cnn1-c1ccc(C(=O)N(C)CC#N)cc1)CC2,> 6.10
24,CC(=O)Nc1nc2c(s1)-c1c(cnn1-c1ccc(C(=O)Nc3ccc(N4CCN(C)CC4)cc3)cc1)CC2,> 6.10
25,CC(=O)Nc1nc2c(s1)-c1c(cnn1-c1ccc(F)cc1F)CC2,> 6.10

row,SMILES,pIC50
1,CC(=O)Nc1nc2c(s1)-c1c(cnn1-c1ccc3ccccc3c1)CC2,> 6.10
2,CC(=O)Nc1nc2c(s1)-c1c(c(-c3ccco3)nn1-c1cccc(Cl)c1)CC2,> 6.10
3,NC(=O)[C@@H]1CCCN1CC(=O)Nc1nc2c(s1)-c1c(cnn1-c1ccccc1)CC2,> 6.10
4,CC(=O)Nc1nc2c(s1)-c1nc(-c3ccc(C(N)=O)cc3)ncc1CC2,> 6.10
5,COCc1nn(-c2ccc(C(=O)N[C@H]3CC[C@H](N4CCCC4)CC3)cc2Cl)c2c1CCc1nc(NC(C)=O)sc1-2,> 6.10
6,CC(=O)Nc1nc2c(s1)-c1nc(N(C)CCN(C)C)ncc1CC2,> 6.10
7,CC(=O)Nc1nc2c(s1)-c1c(cnn1-c1ccc(C(=O)NCc3ccnn3C)cc1)CC2,> 6.10
8,CNC(=O)c1nn(-c2ccccc2Cl)c2c1CCc1nc(NC(C)=O)sc1-2,> 6.10
9,CC(=O)Nc1nc2c(s1)-c1c(c(C(=O)O)nn1-c1ccccc1Cl)CC2,> 6.10
10,CC(=O)Nc1nc2c(s1)-c1c(cnn1-c1ccc(C(=O)N(C)Cc3ccccn3)cc1)CC2,> 6.10
11,CC(=O)Nc1nc2c(s1)-c1c(c([C@H]3CCCO3)nn1-c1ccccc1Br)CC2,> 6.10
12,CC(=O)Nc1nc2c(s1)-c1c(c(-c3ccoc3)nn1-c1ccccc1)CC2,> 6.10
13,CC(=O)Nc1nc2c(s1)-c1c(cnn1-c1ccc(C(=O)NCc3cccnc3)cc1)CC2,> 6.10
14,CC(=O)Nc1nc2c(s1)-c1c(cnn1-c1ccc(C(=O)NC3CCCC3)cc1)CC2,> 6.10
15,CC(=O)Nc1nc2c(s1)-c1c(cnn1-c1ccc(C(=O)NC3CCC(NC(=O)c4cccc5ccccc45)CC3)cc1)CC2 (stereo not drawn),> 6.10
16,CC(=O)Nc1nc2c(s1)-c1c(cnn1-c1ccc(C(=O)NC3CCC(=O)O3)cc1)CC2 (stereo not drawn),> 6.10
17,CC(=O)Nc1nc2c(s1)-c1c(cnn1-c1ccc(CC(=O)NCc3nc4ccccc4[nH]3)cc1)CC2,> 6.10
18,CC(=O)Nc1nc2c(s1)-c1cc(NC(C)C)ccc1CC2,> 6.10
19,C#Cc1nn(-c2ccccc2C(F)(F)F)c2c1CCc1nc(NC(C)=O)sc1-2,> 6.10
20,CC(=O)Nc1nc2c(s1)-c1c(cnn1-c1ccc(O)c(Cl)c1)CC2,> 6.10
21,CC(=O)Nc1nc2c(s1)-c1c(cnn1-c1ccccc1F)CC2,> 6.10
22,CC(=O)Nc1nc2c(s1)-c1c(c(N)nn1-c1ccccc1Cl)CC2,> 6.10
23,CC(=O)Nc1nc2c(s1)-c1c(c(C(C)C)nn1-c1ccc(C(=O)N(C)C3CCN(C)CC3)cc1Cl)CC2,> 6.10
24,CC(=O)Nc1nc2c(s1)-c1c(cnn1-c1ccc(CC(=O)N(C)Cc3ccccn3)cc1)CC2,> 6.10
25,CC(=O)Nc1nc2c(s1)-c1c(c(-c3ccccn3)nn1-c1ccccc1)CC2,> 6.10

row,SMILES,pIC50
1,CC(=O)Nc1nc2c(s1)-c1c(cnn1-c1cccc(Cl)c1)C2,> 6.10
2,CC(=O)Nc1nc2c(s1)-c1c(cnn1-c1ccc(C(=O)N[C@H]3CC[C@H](N4CCCC4)CC3)cc1)CC2,> 6.10
3,CC(=O)Nc1nc2c(s1)-c1c(c(-c3ccco3)nn1-c1ccc(C(=O)N(C)C)cc1Cl)CC2,> 6.10
4,CC(=O)Nc1nc2c(s1)-c1c(cnn1-c1ccccc1C)CC2,> 6.10
5,O=C(Nc1nc2c(s1)-c1nc(-c3ccccc3)ncc1CC2)N1CCOCC1,> 6.10
6,CC(=O)Nc1nc2c(s1)-c1nc(N(CCN(C)C)C(C)=O)ncc1CC2,> 6.10
7,CC(=O)Nc1nc2c(s1)-c1c(cnn1-c1ccc(C#N)cc1)CC2,> 6.10
8,CC(=O)Nc1nc2c(s1)-c1c(cnn1-c1ccc(C(=O)Nc3ccc(N4CCN(C)CC4)cc3)cc1Cl)CC2,> 6.10
9,CC(=O)Nc1nc2c(s1)-c1c(cnn1-c1ccc(C(=O)NCCCN(C)C)cc1)CC2,> 6.10
10,CC(=O)Nc1nc2c(s1)-c1c(cnn1-c1ccc(C(=O)O)cc1)CC2,> 6.10
11,CC(=O)Nc1nc2c(s1)-c1c(cnn1-c1ccc(C(=O)N3CCCC3c3ccncc3)cc1)CC2 (stereo not drawn),> 6.10
12,CN(C)CCCC(=O)Nc1nc2c(s1)-c1c(cnn1-c1ccccc1Cl)C2,> 6.10
13,CN(C)CCNC(=O)Nc1nc2c(s1)-c1c(cnn1-c1ccccc1)C2,> 6.10
14,CC(=O)Nc1nc2c(s1)-c1c(c(-c3ccccc3)nn1-c1ccccc1F)CC2,> 6.10
15,CC(=O)Nc1nc2c(s1)-c1c(cnn1-c1ccc(CC(=O)N3CCC(CO)CC3)cc1)CC2,> 6.10
16,CC(=O)Nc1nc2c(s1)-c1c(cnn1-c1ccc(C(=O)N[C@@H](Cc3ccc(O)cc3)C(N)=O)cc1Cl)CC2,> 6.10
17,CC(=O)Nc1nc2c(s1)-c1c(cnn1-c1ccc(CC(=O)N3CCN(c4ccccn4)CC3)cc1)CC2,> 6.10
18,CC(=O)Nc1nc2c(s1)-c1c(cnn1-c1ccc(C(=O)NCCn3ccnc3)cc1)CC2,> 6.10
19,CC(=O)Nc1nc2c(s1)-c1c(cnn1-c1ccc(C(=O)N(C)Cc3nccn3C)cc1)CC2,> 6.10
20,CC(=O)Nc1nc2c(s1)-c1c(cnn1-c1ccc(CC(=O)N3CCC(O)CC3)cc1)CC2,> 6.10
21,CC(=O)Nc1ccc2c(c1)-c1sc(NC(C)=O)nc1CC2,> 6.10
22,NNC(=O)Nc1nc2c(s1)-c1c(cnn1-c1ccccc1)CC2,> 6.10
23,CC(=O)Nc1nc2c(s1)-c1c(cnn1C(=O)c1ccccc1)CC2,> 6.10
